Assay results: US10633407B2, “14-membered ketolides and methods of their preparation and use” (President and Fellows of Harvard College, priority 2014, dated 2020)
Converted amounts (≈) assume the structure as drawn.

Assays:
Assay in all cases: CLSI broth dilution MIC determination
Format in all cases: cell-based
[1] = test system: P. aeruginosa MP-8 PAO1:mex (mex-oprM-deletion); settings: Pseudomonas aeruginosa, PAO1
P. aeruginosa ATCC 27853 = settings: Pseudomonas aeruginosa, ATCC27853; P. aeruginosa ATCC 27853 (MP-3); read-out: MIC
[2] = test system: E. coli MP-9 ATCC25922:tolC; settings: Escherichia coli, ATCC25922
Text: (§1) MIC data was collected for the novel macrolides that this platform has produced against over 21 unique strains of B. subtilis, E. coli, S. aureus, S. pneumoniae, and H. influenzae, including several multidrug-resistant strains, with a special focus on macrolide resistant mechanisms (vide supra). Azithromycin (Azithro) and Solithromycin (Solithro) were included as a control macrolides in many cases. CLSI standard procedures for broth dilution MIC determination were used. […] These genotypes can be constitutive or inducible.

E. coli ATCC 25922 = settings: Escherichia coli, ATCC25922, E. coli ATCC 25922 (MP-4); read-out: MIC
Text: as §1

[3] = test system: E. coli MP-532 clinical-cErmB; settings: Escherichia coli
Text: as §1

S. aureus ATCC 29213 = settings: Staphylococcus aureus, ATCC29213; S. aureus ATCC 29213 (MP-12); read-out: MIC
Text: as §1

[4] = test system: S. aureus MP-17 ATCCBAA-977 (BAA 977 iErm); settings: Staphylococcus aureus; S. aureus MP-17, ATCCBAA-977, iErm; read-out: MIC
Text: as §1

[5] = test system: S. aureus (MRSA) MP-513 ST-228 cErm (Clinical-cErm); settings: Staphylococcus aureus, read-out: MIC
Text: as §1

S. aureus MRSA: USA300 = settings: Staphylococcus aureus; S. aureus MRSA: USA300 (MP-549, msr(a)); read-out: MIC
Text: as §1

E. coli MP-541 clinical = settings: Escherichia coli, MP541CLINICAL, read-out: MIC
Text: as §1

[6] = test system: A. baumannii MP-577 Clinical-AZT low; settings: Acinetobacter baumannii, read-out: MIC
K. pneumoniae ATCC 10031 = settings: Klebsiella pneumoniae, ATCC10031, K. pneumoniae ATCC 10031 (MP-14); read-out: MIC
A. baumannii ATCC 19606 = settings: Acinetobacter baumannii, ATCC19606; A. baumannii ATCC 19606 (MP-15); read-out: MIC
[7] = test system: K. pneumoniae MP-546 Clinical-MDR; settings: Klebsiella pneumoniae, read-out: MIC
P. aeruginosa MP-7 PAO1 = settings: Pseudomonas aeruginosa, read-out: MIC
[8] = test system: K. pneumoniae MP-548 clinical; settings: Klebsiella pneumoniae, MP548CLINICAL, read-out: MIC
[9] = test system: A. baumannii MP-576 Clinical-MDR; settings: Acinetobacter baumannii, read-out: MIC

Compound | MIC [1] [µg/mL] | MIC (P. aeruginosa ATCC 27853) [µg/mL] | MIC [2] [µg/mL] | MIC (E. coli ATCC 25922) [µg/mL] | MIC [3] [µg/mL] | MIC (S. aureus ATCC 29213) [µg/mL] | MIC [4] [µg/mL] | MIC [5] [µg/mL] | MIC (S. aureus MRSA: USA300) [µg/mL] | MIC (E. coli MP-541 clinical) [µg/mL] | MIC [6] [µg/mL] | MIC (K. pneumoniae ATCC 10031) [µg/mL] | MIC (A. baumannii ATCC 19606) [µg/mL] | MIC [7] [µg/mL] | MIC (P. aeruginosa MP-7 PAO1) [µg/mL] | MIC [8] [µg/mL] | MIC [9] [µg/mL]
CC[C@H]1OC(=O)[C@@](C)(F)C(=O)[C@H](C)[C@@H](O[C@@H]2OC(C)CC(N(C)C)C2O)[C@](C)(OC)C[C@@H](C)C(=O)[C@H](C)[C@H]2N(CC#CCn3cc(-c4ncccn4)nn3)C(=O)O[C@]12C (stereo partly shown) [FSM-22741] | 8 (≈ 9.66 µM) | > 64 | 4 (≈ 4.83 µM) | 16 (≈ 19.3 µM) | > 64 | 0.125 (≈ 0.151 µM) | 0.125 (≈ 0.151 µM) | > 64 | 0.25 (≈ 0.302 µM) | 32 (≈ 38.6 µM) | 32 (≈ 38.6 µM) | 4 (≈ 4.83 µM) | 8 (≈ 9.66 µM) | > 64 | > 64 | 64 (≈ 77.3 µM) | > 64
CC[C@H]1OC(=O)[C@@](C)(F)C(=O)[C@H](C)[C@@H](O[C@@H]2OC(C)CC(N(C)C)C2O)[C@](C)(OC)C[C@@H](C)C(=O)[C@H](C)[C@H]2N(CC#CCn3cc(-c4cc(N)nc(N)n4)nn3)C(=O)O[C@]12C (stereo partly shown) [FSM-22742] | 8 (≈ 9.32 µM) | 64 (≈ 74.6 µM) | 2 (≈ 2.33 µM) | 16 (≈ 18.6 µM) | > 64 | 0.5 (≈ 0.583 µM) | 1 (≈ 1.17 µM) | > 64 | 1 (≈ 1.17 µM) | 16 (≈ 18.6 µM) | 32 (≈ 37.3 µM) | 4 (≈ 4.66 µM) | 16 (≈ 18.6 µM) | > 64 | 64 (≈ 74.6 µM) | 64 (≈ 74.6 µM) | > 64
CC[C@H]1OC(=O)[C@@](C)(F)C(=O)[C@H](C)[C@@H](O[C@@H]2OC(C)CC(N(C)C)C2O)[C@](C)(OC)C[C@@H](C)C(=O)[C@H](C)[C@H]2N(CC#CCn3cc(-c4cc(N)ncn4)nn3)C(=O)O[C@]12C (stereo partly shown) [FSM-22745] | 16 (≈ 19 µM) | > 64 | 4 (≈ 4.75 µM) | 32 (≈ 38 µM) | > 64 | 0.5 (≈ 0.593 µM) | 1 (≈ 1.19 µM) | > 64 | 1 (≈ 1.19 µM) | 32 (≈ 38 µM) | 64 (≈ 75.9 µM) | 8 (≈ 9.49 µM) | 32 (≈ 38 µM) | > 64 | > 64 | > 64 | > 64
CC[C@H]1OC(=O)[C@@](C)(F)C(=O)[C@H](C)[C@@H](O[C@@H]2OC(C)CC(N(C)C)C2O)[C@](C)(OC)C[C@@H](C)C(=O)[C@H](C)[C@H]2N(CC#CCn3cc(-c4cnccn4)nn3)C(=O)O[C@]12C (stereo partly shown) [FSM-22746] | 16 (≈ 19.3 µM) | > 64 | 4 (≈ 4.83 µM) | 32 (≈ 38.6 µM) | > 64 | 0.25 (≈ 0.302 µM) | 0.25 (≈ 0.302 µM) | > 64 | 0.5 (≈ 0.604 µM) | 64 (≈ 77.3 µM) | 64 (≈ 77.3 µM) | 8 (≈ 9.66 µM) | 16 (≈ 19.3 µM) | > 64 | > 64 | > 64 | > 64
CC[C@H]1OC(=O)[C@@](C)(F)C(=O)[C@H](C)[C@@H](O[C@@H]2OC(C)CC(N(C)C)C2O)[C@](C)(OC)C[C@@H](C)C(=O)[C@H](C)[C@H]2N(CC#CCn3cc(-c4cncc(N)n4)nn3)C(=O)O[C@]12C (stereo partly shown) [FSM-22747] | 16 (≈ 19 µM) | > 64 | 4 (≈ 4.75 µM) | 32 (≈ 38 µM) | > 64 | 0.25 (≈ 0.297 µM) | 0.25 (≈ 0.297 µM) | > 64 | 0.5 (≈ 0.593 µM) | 32 (≈ 38 µM) | 32 (≈ 38 µM) | 8 (≈ 9.49 µM) | 16 (≈ 19 µM) | > 64 | > 64 | > 64 | > 64
CC[C@H]1OC(=O)[C@@](C)(F)C(=O)[C@H](C)[C@@H](O[C@@H]2OC(C)CC(N(C)C)C2O)[C@](C)(OC)C[C@@H](C)C(=O)[C@H](C)[C@H]2N(CC#CCn3cc(-c4ccnc(N)n4)nn3)C(=O)O[C@]12C (stereo partly shown) [FSM-22748] | 16 (≈ 19 µM) | 64 (≈ 75.9 µM) | 4 (≈ 4.75 µM) | 16 (≈ 19 µM) | > 64 | 0.25 (≈ 0.297 µM) | 0.25 (≈ 0.297 µM) | > 64 | 0.25 (≈ 0.297 µM) | 16 (≈ 19 µM) | 32 (≈ 38 µM) | 8 (≈ 9.49 µM) | 16 (≈ 19 µM) | > 64 | 64 (≈ 75.9 µM) | 64 (≈ 75.9 µM) | > 64
CC[C@H]1OC(=O)[C@@](C)(F)C(=O)[C@H](C)[C@@H](O[C@@H]2OC(C)CC(N(C)C)C2O)[C@](C)(OC)C[C@@H](C)C(=O)[C@H](C)[C@H]2N(CC#CCn3cc(-c4nccc(N)n4)nn3)C(=O)O[C@]12C (stereo partly shown) [FSM-22749] | 16 (≈ 19 µM) | > 64 | 8 (≈ 9.49 µM) | 64 (≈ 75.9 µM) | > 64 | 2 (≈ 2.37 µM) | 2 (≈ 2.37 µM) | > 64 | 2 (≈ 2.37 µM) | 64 (≈ 75.9 µM) | > 64 | 16 (≈ 19 µM) | 32 (≈ 38 µM) | > 64 | > 64 | > 64 | > 64
CC[C@H]1OC(=O)[C@@](C)(F)C(=O)[C@H](C)[C@@H](O[C@@H]2OC(C)CC(N(C)C)C2O)[C@](C)(OC)C[C@@H](C)C(=O)[C@H](C)[C@H]2N(CC#CCn3cc(-c4cc(F)nc(F)n4)nn3)C(=O)O[C@]12C (stereo partly shown) [FSM-22750] | > 64 | > 64 | > 64 | > 64 | > 64 | 4 (≈ 4.63 µM) | 8 (≈ 9.26 µM) | > 64 | 8 (≈ 9.26 µM) | > 64 | > 64 | > 64 | > 64 | > 64 | > 64 | > 64 | > 64
CC[C@H]1OC(=O)[C@@](C)(F)C(=O)[C@H](C)[C@@H](O[C@@H]2OC(C)CC(N(C)C)C2O)[C@](C)(OC)C[C@@H](C)C(=O)[C@H](C)[C@H]2N(CC#CCn3cc(-c4cc(OC)ccn4)nn3)C(=O)O[C@]12C (stereo partly shown) [FSM-100576] | 8 (≈ 9.33 µM) | > 32 | 2 (≈ 2.33 µM) | 32 (≈ 37.3 µM) | > 32 | 0.125 (≈ 0.146 µM) | 0.125 (≈ 0.146 µM) | > 32 | 0.25 (≈ 0.292 µM) | 32 (≈ 37.3 µM) | > 32 | 4 (≈ 4.67 µM) | 16 (≈ 18.7 µM) | > 32 | > 32 | > 32 | > 32
CC[C@H]1OC(=O)[C@@](C)(F)C(=O)[C@H](C)[C@@H](O[C@@H]2OC(C)CC(N(C)C)C2O)[C@](C)(OC)C[C@@H](C)C(=O)[C@H](C)[C@H]2N(CC#CCn3cc(-c4cc(N)ccn4)nn3)C(=O)O[C@]12C (stereo partly shown) [FSM-100593] | 2 (≈ 2.38 µM) | 32 (≈ 38 µM) | 0.5 (≈ 0.594 µM) | 4 (≈ 4.75 µM) | > 64 | 0.125 (≈ 0.148 µM) | 0.125 (≈ 0.148 µM) | 64 (≈ 76 µM) | 0.25 (≈ 0.297 µM) | 8 (≈ 9.5 µM) | 8 (≈ 9.5 µM) | 1 (≈ 1.19 µM) | 8 (≈ 9.5 µM) | 32 (≈ 38 µM) | 32 (≈ 38 µM) | 16 (≈ 19 µM) | > 64
CC[C@H]1OC(=O)[C@@](C)(F)C(=O)[C@H](C)[C@@H](O[C@@H]2OC(C)CC(N(C)C)C2O)[C@](C)(OC)C[C@@H](C)C(=O)[C@H](C)[C@H]2N(CC#CCn3cc(-c4cc(=O)cc[nH]4)nn3)C(=O)O[C@]12C (stereo partly shown) [FSM-100597] | 16 (≈ 19 µM) | > 64 | 4 (≈ 4.75 µM) | 64 (≈ 75.9 µM) | > 64 | 1 (≈ 1.19 µM) | 1 (≈ 1.19 µM) | > 64 | 2 (≈ 2.37 µM) | 32 (≈ 38 µM) | > 64 | 8 (≈ 9.49 µM) | 64 (≈ 75.9 µM) | > 64 | > 64 | > 64 | > 64
